How the values were obtained:
[1] = test system: reset cells and conventional PSC; assay: Proliferation / colony formation in 2-deoxyglucose; format: cell-based, human; details: reset cells in contrast to conventional PSC, 7 days
Procedure: C & D. Proliferation in 2-deoxyglucose. After single cell dissociation, 3×10^4 cells were seeded on 12 wells and cultured for 7 days with indicated concentrations of 2-deoxyglucose (2DG) or reduced glucose. ROCKi was added to conventional PSC.
We examined functional consequences of altered metabolic properties by culture in 2-deoxyglucose to inhibit glycolysis and in reduced concentrations of glucose to increase dependency on mitochondrial respiration.

HNES cells = assay: Colony formation of HNES cells in 2-deoxyglucose; format: cell-based, human; details: HNES cells versus HNES-primed cells
Description: Primed PSC rely on anaerobic glycolysis with very low mitochondrial respiration capacity (Zhou et al., 2012). […] We evaluated the capacity of HNES cells to form colonies in the presence of the glycolysis inhibitor 2-deoxyglucose. […] HNES cells also stained intensely with MitoProbe™ DilC1, reflecting mitochondrial membrane potential (not shown).

With `O=CC[C@@H](O)[C@H](O)[C@H](O)CO` [2-deoxyglucose] the “colony formation in the presence of 2-deoxyglucose” value [1] was “reset cells formed undifferentiated colonies” and the “colony formation in the presence of 2-deoxyglucose” value (HNES cells) was “Undifferentiated HNES cells readily formed colonies while HNES-primed cells did not survive”.

From US10894948B2, “Resetting pluripotent stem cells” (CAMBRIDGE ENTERPRISE LIMITED, priority 2014, dated 2021)
